Results on 3 molecules are retold here after US20220008514A1, “COMBINED USE OF SELECTIVE SEROTONIN REUPTAKE INHIBITORS AND HEMATOPOIETIC GROWTH FACTORS FOR TREATING HEMATOPOIETIC DISEASES” (IMAGINE INSTITUT DES MALADIES GENETIQUES NECKER ENFANTS …, priority 2018, published 2022).

Experiment [1] relates to erythroid cells generated from CD34+ cord blood progenitor cells. Nature of the experiment: Human cord blood erythroid in vitro cell culture, erythroid proliferation (FIG. 3). The experiment is classed as cell-based. As to conditions: serum-free medium with EPO (2 mU/ml)+IL-3 (10 ng/ml)+SCF (50 ng/ml). On the procedure:
FIG. 3. Human in vitro experiments (effect of 5-HT combined with EPO). To determine the role played by serotonin in erythroid proliferation, inventors used a well-defined culture system that closely mimics the proliferation and differentiation of erythroid precursors in vivo. […] Erythroid cells were generated from CD34^+ cord blood progenitor cells in serum-free medium in the presence of EPO (2 mU/ml)+IL-3 (10 ng/ml)+stem cell factor (SCF; 50 ng/ml). Throughout data are mean±SEM. Unpaired t-test and Pearson linear and non-linear regressions were used when appropriate. *P<0.05, **P<0.005, ***P<0.0005.
Erythroid cells were generated from CD34^+ cord blood progenitor cells in serum-free medium in the presence of EPO (2 mU/ml)+IL-3 (10 ng/ml)+stem cell factor (SCF; 50 ng/ml) as previously described in Zermati et al., (2000) Exp. Hematol. 28:885-894.

Experiment [2] relates to irradiation-induced cytopenia in WT C57BL/6 mice. The experiment is described as follows: Sub-lethal irradiation-induced cytopenia in mice: SSRI, hematopoietic growth factor or both (FIG. 7, 8, 9, Table 1). The experiment is classed as in vivo, mouse. As to conditions: At Day 17 from sublethal irradiation.
Experiment [3] deals with anemia after sub-lethal irradiation in WT mice. The experiment is described as follows: Sub-lethal irradiation anemia model in WT mice, fluoxetine versus placebo (FIG. 5A, 5B). It counts as in vivo, mouse. As to conditions: fluoxetine for 7 days followed by sub-lethal irradiation.
For experiment [4], the system named is CD71+/TER119+ population in Tph1+/- mice. Nature of the experiment: Sub-lethal irradiation in Tph1+/- mice, fluoxetine versus placebo, erythroid precursor immunophenotyping (FIG. 5C, 5D). The experiment is classed as in vivo, mouse. As to conditions: starting on day 7 following sub-lethal irradiation, compared to placebo.
Experiment [5] relates to chemotherapy induced aplasia. Nature of the experiment: Human cohort study: effect of SSRI on chemotherapy-induced aplasia after autologous HSCT (FIG. 6). As to conditions: patients at the time of autologous HSCT after myeloablative chemotherapy, versus matched controls not under SSRI. It counts as in vivo. An excerpt: FIG. 6. Human cohort study (effect of SSRI on chemotherapy induced aplasia). A reduced duration of aplasia is observed in patients treated with SSRI at the time of autologous HSCT (x), in comparison with the duration of aplasia observed for patients having not been under SSRI medication (+).
In order to evaluate the impact of treatment with SSRI on chemotherapy-induced aplasia, data of all patients benefiting from autologous hematopoietic stem cell transplantation (HSCT) from 2010 to 2017 in the hematology department of Necker Hospital, Paris, France were screened. Data from 22 patients who were under therapy with SSRI for usual indications at the time of autologous HSCT retrospectively reviewed, and compared with 66 control patients (3 controls per patient) matched for confounding factors (age, sex, disease, response of disease before therapy, conditioning regimen, date of transplant and number of CD34+ cells injected). It is observed a reduced duration of aplasia (a criterion of which, commonly described in the art, being a number of polynuclear neutrophils below 500/mm^3) in patients who were treated with SSRI at the time of autologous HSCT.

The structures appear in SMILES notation.

With `NCCc1c[nH]c2ccc(O)cc12` [5-HT, 5-hydroxytryptamine], the erythroid proliferation entry in experiment [1] is given as “significantly enhances erythroid proliferation”.

`Cn1c2c(c3ccccc31)CCNCC2` [PNU 22394]: the erythroid proliferation result in experiment [1] was “significantly enhances erythroid proliferation”.

Take `CNCC[C@@H](Oc1ccc(C(F)(F)F)cc1)c1ccccc1` (racemic) [fluoxetine, (RS)-N-methyl-3-phenyl-3-propan-1-amine]: in experiment [2], the “% of mice with Hemoglobin level ≤8 g/dl” value is 100%, the “% of mice with Normal Hemoglobin level” value worked out at 0%, the “% of mice with Normal neutrophil number” value was found to be 20% and the “% of mice with Normal platelet level” value amounted to 0%. Also, in experiment [3], the “day of rapid and significant increase in the number of reticulocytes” value is 3 days. Further, the “day of normalization of Hb levels” value in experiment [3] (placebo no normalization until day 22) was determined as 11 days. In experiment [4], the “CD71+/TER119+ population” value is “significant increase”. Further, the “duration (length) of aplasia” value in experiment [5] was “considerably reduced by at least two days”.
